Results on seven compounds are retold here after patent publication US4258046A, “Pyrano-heterocycles and medicaments containing these compounds” (Hoechst Aktiengesellschaft, priority 1978, dated 1981).

Structures can show the parent of a compound that is named as a salt.

The test system of assay [1] is passive cutaneous anaphylaxis (PCA) in rats. As to the kind of experiment: Inhibition of passive cutaneous anaphylaxis (PCA) in rats on intravenous treatment. It counts as in vivo, Sprague-Dawley rats. The note with it: i.v., antiserum dilution 1:16. The protocol: (§1) The antiserum is directed against ovalbumine and is induced in rats by combined administration of ovalbumine with Bordetella pertussis as adjuvant and boostering with Nippostrongylus larvae. 72 hours after the intracutaneous administration of the antiserum, the intravenous injection of the antigen consisting of a mixture of each time 25 mg/kg of ovalbumine and Evans blue is effected, in order to trigger the cutaneous anaphylactic reaction. The compounds of the formula I or their salts are administered, if intravenously, directly before the injection of the ovalbumine-dyestuff mixture and if administered orally, 30 minutes before the administration of the ovalbumine-dyestuff mixture. 10 Minutes after the ovalbumine-dyestuff injection, the animals are sacrificed and the diameter of spreading of the dyestuff is measured in the hypodermis.
(§2) As comparative substance, the standard preparation di- sodium-chromoglycate(DSCG) is used.

Assay [2] shares this test system. As to the kind of experiment: Inhibition of passive cutaneous anaphylaxis (PCA) in rats on oral treatment. It counts as in vivo, Sprague-Dawley rats. The protocol: The compounds of the invention of the formula I and their salts have strong antiallergic properties and are well tolerated on intravenous as well as oral administration in the models of passive cutaneous anaphylaxis (P C A) to rats.
as §1, with “According to the method described by J. Goose and A. M. J. N. Blair, Immunology 16, 749 (1969) a P C A is made ready on Sprague-Dawley rats by intracutaneous administration of homologous antiserum, 0.1 ml of a dilution of 1:16 and 1:32 in both flanks. The antiserum” for “The antiserum”
as §2

Setting [3] is: 10.0 mg/kg, antiserum dilution 1:16.
[4] abbreviates: 10.0 mg/kg, antiserum dilution 1:32.

With `O=C(O)c1cc(=O)c2c(OCC(O)COc3cccc4oc(C(=O)O)cc(=O)c34)cccc2o1` [DSCG, di- sodium-chromoglycate, reference compound], the “% Inhibition against control” value in assay [1] (0.1 mg/kg) is 9%; in assay [1] (0.3 mg/kg), 34%; in assay [1] (1.0 mg/kg), 71%; in assay [2] (setting [3]), 0%; in assay [2] (setting [4]) it was 0%; in assay [2] (30.0 mg/kg, antiserum dilution 1:16), 5%. The “% Inhibition against control” value in assay [2] (30.0 mg/kg, antiserum dilution 1:32) turned out to be 0%. In addition, the “activity when administered orally” value in assay [2] is “orally inactive”.
On to `CCn1c(=O)c2c(O)c([N+](=O)[O-])c(=O)oc2c2cc(Cl)ccc21` [Example 30, 6-Ethyl-9-chloro-5,6-dihydro-3-nitro-2,5-dioxo-2H-pyrano[3,2-c]-quinoline-4-ol], for which the “% Inhibition against control” value in assay [1] (0.03 mg/kg) is 50%; in assay [1] (0.1 mg/kg), 88%; in assay [1] (0.3 mg/kg), 100%.
Turning to `CCn1c(=O)c2c(O)c([N+](=O)[O-])c(=O)oc2c2cc(F)ccc21.[Na]` [Example 31, 6-Ethyl-9-fluoro-5,6-dihydro-3-nitro-2,5-dioxo-2H-pyrano[3,2-c]quinoline-4-ol-sodium salt], the “% Inhibition against control” value amounted to 27% in assay [1] (0.01 mg/kg); 60% in assay [1] (0.03 mg/kg); 80% in assay [1] (0.1 mg/kg); 87% in assay [1] (0.3 mg/kg); 100% in assay [1] (3.0 mg/kg).
On to `CCn1c(=O)c2c(O)c([N+](=O)[O-])c(=O)oc2c2cc(Cl)c(Cl)cc21` [Example 35, 6-Ethyl-8,9-dichloro-5,6-dihydro-3-nitro-2,5-dioxo-2H-pyrano[3,2-c]quinoline-4-ol], for which the “% Inhibition against control” value was 20% in assay [1] (0.1 mg/kg), 53% in assay [1] (0.3 mg/kg), 73% in assay [1] (1.0 mg/kg) and 100% in assay [1] (30.0 mg/kg).
Consider `Cn1c(=O)c2c(O)c([N+](=O)[O-])c(=O)oc2c2cc(Cl)ccc21` [Example 25, 9-Chloro-5,6-dihydro-6-methyl-3-nitro-2,5-dioxo-2H-pyrano[3,2-c]quinoline-4-ol], for which the “% Inhibition against control” value is reported as 44% in assay [1] (0.01 mg/kg), 67% in assay [1] (0.03 mg/kg) and 100% in assay [1] (0.1 mg/kg).
In the case of `O=c1oc2c(c(O)c1[N+](=O)[O-])c(=O)n1c3c(cc(Cl)cc23)CCC1` [Example 24, 11-Chloro-7,8-dihydro-3-nitro-2,5-dioxo-2H,5H,9H-benzo-[ij]pyrano[2,3-b]quinolizine-4-ol-sodium salt], the “% Inhibition against control” value is on record as 12% in assay [1] (0.1 mg/kg); 50% in assay [1] (0.3 mg/kg); 89% in assay [1] (1.0 mg/kg); 100% in assay [1] (3.0 mg/kg); 22% in assay [2] (0.3 mg/kg, antiserum dilution 1:16); 27% in assay [2] (0.3 mg/kg, antiserum dilution 1:32). Moreover, the “% Inhibition against control” value amounted to 50% in assay [2] (1.0 mg/kg, antiserum dilution 1:16); 73% in assay [2] (1.0 mg/kg, antiserum dilution 1:32); 44% in assay [2] (3.0 mg/kg, antiserum dilution 1:16); 73% in assay [2] (3.0 mg/kg, antiserum dilution 1:32); 44% in assay [2] (setting [3]); 73% in assay [2] (setting [4]).
Regarding `CCn1c(=O)c2c(O)c([N+](=O)[O-])c(=O)oc2c2cc(C(F)(F)F)ccc21` [Example 32, 6-Ethyl-5,6-dihydro-3-nitro-2,5-dioxo-9-trifluoromethyl-2H-pyrano[3,2-c]quinoline-4-ol], the “% Inhibition against control” value was determined as 19% in assay [1] (0.03 mg/kg), 69% in assay [1] (0.1 mg/kg), 75% in assay [1] (0.3 mg/kg) and 100% in assay [1] (3.0 mg/kg).
